Measured values from patent US5968910A, “Compositions containing two or three inhibitors of different HIV reverse transcriptases” (priority 1994, dated 1999).
≈ marks a conversion by molar mass, not a printed value. Read-outs that look alike come from different tables or passages of the source.

Assays:
[1] = test system: HIV-1(IIIB) (WT); assay: microbe, parasite or virus in culture; format: cell-based; settings: Human immunodeficiency virus 1, IIIB, CCRF-CEM
Procedure, shortened: (§1)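 CEM cells at 250,000 cells/ml were infected with HIV-1 at 100 CCID50 per ml, then mixed with serial dilutions of test compound. After 4 days at 37° C., cultures were scored for syncytium formation.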

[2] = target: HIV-1 RT (WT) (Human immunodeficiency virus type 1 group M subtype B, UniProt P03366); assay: biochemical
Procedure, shortened: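 Inhibition read as reduced incorporation of [2,8-³H]dGTP (2.95 μM) into acid-precipitable product on a poly(C).oligo(dG) template/primer (0.1 mM). Recombinant RT, test compounds in 5-fold dilutions; 30 min, 37° C, pH 7.8 Tris buffer with 5 mM Mg2+, 150 mM KCl.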

[3] = test system: HIV-1(IIIB); assay: Knock-out concentrations: breakthrough of HIV-1(IIIB)-induced cytopathicity in CEM cell cultures; format: cell-based; settings: for activity at 0.1 µg/mL / activity at 0.5 µg/mL / activity at 2.5 µg/mL: Human immunodeficiency virus 1, IIIB, CCRF-CEM, read-out: HIV-1-induced cytopathicity in cell culture; for activity at 0.1 µg/mL: 0.1 μg/ml; for activity at 0.5 µg/mL: 0.5 μg/ml; for activity at 2.5 µg/mL: 2.5 μg/ml
Description: The culture medium consisted of RPMI 1640 containing 10% fetal bovine serum, 2 mM L-glutamine, and 0.075% NaHCO3. The multiplicity of the initial infection was ~1000 times the CCID50 (50% cell culture infective dose). Passages were performed every 3 to 4 days by adding 0.5 to 1.0 ml of the infected culture supernatant to 5 ml of a suspension containing 4×10^5 uninfected CEM cells per ml. Syncytium formation was used as a parameter of virus breakthrough in the cell cultures. In the drug combination experiments, the compounds were combined at the same initial concentrations as used for the two lowest concentrations in the single-drug experiments.
The drug concentrations were kept constant throughout the whole time period of the experiment (10 subcultivations or 35 days). Then the drugs were removed from the cell cultures, and the cells were further subcultured for at least 5 additional passages.

[4] = test system: HIV-1/III(0.1) 103-Asn; assay: Sensitivity of mutant HIV-1 strain in CEM cell cultures; format: cell-based; settings: Human immunodeficiency virus 1, CCRF-CEM; Table 5; read-out: EC50
Procedure, shortened: as §1

[5] = test system: HIV-1/TIBO R82150 (100-Ile); assay: as above; format: cell-based; settings: Human immunodeficiency virus 1, CCRF-CEM; CEM cells, Table 1; read-out: 50% Effective Concentration
Procedure, shortened: as §1

[6] = test system: HIV-1/V(0.5) 103-Asn; assay: as above; format: cell-based; settings: Human immunodeficiency virus 1, CCRF-CEM; Table 5; read-out: EC50
Procedure, shortened: as §1

[7] = test system: HIV-1/I(0.1) 103-Asn; assay: as above; format: cell-based; settings: Human immunodeficiency virus 1, CCRF-CEM; Table 5; read-out: EC50
Procedure, shortened: as §1

[8] = test system: HIV-1/TSAO-m^3 T (138-Lys); assay: as above; format: cell-based; settings: Human immunodeficiency virus 1, CCRF-CEM; CEM cells, Table 1; read-out: 50% Effective Concentration
Procedure, shortened: as §1

[9] = test system: HIV-1/Pyr (181-Cys); assay: as above; format: cell-based; settings: Human immunodeficiency virus 1, CCRF-CEM; CEM cells, Table 1; read-out: 50% Effective Concentration
Procedure, shortened: as §1

[10] = test system: HIV-1/TIBO R82913 (103-Asn); assay: as above; format: cell-based; settings: Human immunodeficiency virus 1, CCRF-CEM; CEM cells, Table 1; read-out: 50% Effective Concentration
Procedure, shortened: as §1

[11] = test system: HIV-1/Nev (106-Ala); assay: as above; format: cell-based; settings: Human immunodeficiency virus 1, CCRF-CEM; CEM cells, Table 1; read-out: 50% Effective Concentration
Procedure, shortened: as §1

[12] = test system: HIV-1/V(0.1) 101-Ile + 141-Glu; assay: as above; format: cell-based; settings: Human immunodeficiency virus 1, CCRF-CEM; Table 5; read-out: EC50
Procedure, shortened: as §1

[13] = test system: HIV-1/II(0.1) 100-Ile; assay: as above; format: cell-based; settings: Human immunodeficiency virus 1, CCRF-CEM; Table 5; read-out: EC50
Procedure, shortened: as §1

[14] = 936 h, day 39 post infection, compound absent from day 35
[15] = 1008 h, day 42 post infection, compound absent from day 35
[16] = 1104 h, day 46 post infection, compound absent from day 35
[17] = 1176 h, day 49 post infection, compound absent from day 35
[18] = 1272 h, day 53 post infection, compound absent from day 35

O=C(OC1CCCCC1)c1cc(NC(=S)c2ccsc2)ccc1Cl [Compound V]
EC50 ([1]; CEM cells, Table 1, read-out: 50% Effective Concentration): 0.03 µg/mL (≈ 0.079 µM) | EC50 ([1]; HIV-1 (III8), Table 5, read-out: EC50): 0.03 µg/mL (≈ 0.079 µM) | IC50 ([1]; range stated for Compounds I-V together, read-out: 50% inhibitory concentration, HIV-1(IIIB) replication in CEM cells): 0.004 to 0.05 µg/mL (≈ 0.0105 to 0.132 µM) | IC50 ([2]; range stated for the compounds together, poly(C).oligo(dG), 2.95 μM [2,8-3H]dGTP, read-out: IC50 on recombinant HIV-1 RT): 47.4 to 203 nM | IC50 ([2]; substrate [2,8-3H]dGTP 2.95 μM, template poly(rC)oligo(dG), read-out: IC50, anti-HIV-1 RT (WT) activity (converted)): 203 nM | prevention of virus breakthrough, fold more efficient than BHAP [3]: at least 5 fold | prevention of virus breakthrough, fold more efficient than nevirapine [3]: ≥ 25 fold | activity at 0.1 µg/mL ([3]; 96 h, day 4 post infection): 0% | activity at 0.5 µg/mL ([3]; 96 h, day 4 post infection): 0% | activity at 2.5 µg/mL ([3]; 96 h, day 4 post infection): 0% | activity at 0.1 µg/mL ([3]; 192 h, day 8 post infection): 37.5% | activity at 0.5 µg/mL ([3]; 192 h, day 8 post infection): 0% | activity at 2.5 µg/mL ([3]; 192 h, day 8 post infection): 0% | activity at 0.1 µg/mL ([3]; 264 h, day 11 post infection): 50% | activity at 0.5 µg/mL ([3]; 264 h, day 11 post infection): 0% | activity at 2.5 µg/mL ([3]; 264 h, day 11 post infection): 0% | activity at 0.1 µg/mL ([3]; 336 h, day 14 post infection): 100% | activity at 0.5 µg/mL ([3]; 336 h, day 14 post infection): 18.5% | activity at 2.5 µg/mL ([3]; 336 h, day 14 post infection): 0% | activity at 0.1 µg/mL ([3]; 408 h, day 17 post infection): 100% | activity at 0.5 µg/mL ([3]; 408 h, day 17 post infection): 75% | activity at 2.5 µg/mL ([3]; 408 h, day 17 post infection): 0% | activity at 0.1 µg/mL ([3]; 504 h, day 21 post infection): 100% | activity at 0.5 µg/mL ([3]; 504 h, day 21 post infection): 100% | activity at 2.5 µg/mL ([3]; 504 h, day 21 post infection): 0% | activity at 0.1 µg/mL ([3]; 600 h, day 25 post infection): 100% | activity at 0.5 µg/mL ([3]; 600 h, day 25 post infection): 100% | activity at 2.5 µg/mL ([3]; 600 h, day 25 post infection): 0% | activity at 0.1 µg/mL ([3]; 672 h, day 28 post infection): 100% | activity at 0.5 µg/mL ([3]; 672 h, day 28 post infection): 100% | activity at 2.5 µg/mL ([3]; 672 h, day 28 post infection): 0% | activity at 0.1 µg/mL ([3]; 768 h, day 32 post infection): 100% | activity at 0.5 µg/mL ([3]; 768 h, day 32 post infection): 100% | activity at 2.5 µg/mL ([3]; 768 h, day 32 post infection): 0% | activity at 0.1 µg/mL ([3]; 840 h, day 35 post infection): 100% | activity at 0.5 µg/mL ([3]; 840 h, day 35 post infection): 100% | activity at 2.5 µg/mL ([3]; 840 h, day 35 post infection): 0% | activity at 0.1 µg/mL [3, 14]: 100% | activity at 0.5 µg/mL [3, 14]: 100% | activity at 2.5 µg/mL [3, 14]: 0% | activity at 0.1 µg/mL [3, 15]: 100% | activity at 0.5 µg/mL [3, 15]: 100% | activity at 2.5 µg/mL [3, 15]: 0% | activity at 0.1 µg/mL [3, 16]: 100% | activity at 0.5 µg/mL [3, 16]: 100% | activity at 2.5 µg/mL [3, 16]: 0% | activity at 0.1 µg/mL [3, 17]: 100% | activity at 0.5 µg/mL [3, 17]: 100% | activity at 2.5 µg/mL [3, 17]: 0% | activity at 0.1 µg/mL [3, 18]: 100% | activity at 0.5 µg/mL [3, 18]: 100% | activity at 2.5 µg/mL [3, 18]: 0% | concentration at which virus emerged (virus breakthrough) ([3]; tested at 0.1, 0.5 and 2.5 μg/ml, 35 days): 0.5 µg/mL | EC50 [4]: 0.35 µg/mL (≈ 0.921 µM) | EC50 [5]: 0.85 µg/mL (≈ 2.24 µM) | EC50 [6]: ≥ 5 µg/mL | EC50 [7]: 1.75 µg/mL (≈ 4.61 µM) | EC50 [8]: 0.075 µg/mL (≈ 0.197 µM) | EC50 [9]: 0.077 µg/mL (≈ 0.203 µM) | EC50 [10]: > 1 µg/mL | EC50 [11]: 0.073 µg/mL (≈ 0.192 µM) | EC50 [12]: 0.3 µg/mL (≈ 0.79 µM) | EC50 [13]: ≥ 5 µg/mL
